Experimental data from patent publication US20240400555A1 (Initial Therapeutics, Inc., priority 2023, published 2024).
pIC50: −log10 of the molar value.

Tested on: MV-4-11 cells
Assay: Cell Viability Assay in MV-4-11 Cells
Type: cell-based
Conditions: Homo sapiens, MV4-11, 72 h, MV-4-11 cells, 72 h, Cell-Titer Glo; read-out: IC50
Outline: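 Luminescent ATP read-out (CellTiter-Glo) after 72 h compound treatment of MV-4-11 leukaemia cells (7,000 per well, IMDM plus 10% FBS). Values expressed relative to DMSO control and derived by four-parameter non-linear regression.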

Structure (SMILES) | pIC50
Cc1cc(C)c2c(N(C(=O)c3ccc(-c4cn(C)nn4)cn3)[C@@H]3CCCNC3)nccc2c1 [Example 703, (R)—N-(6,8-dimethylisoquinolin-1-yl)-5-(1-methyl-1H-1,2,3-triazol-4-yl)-N-(piperidin-3-yl)picolinamide] | 7.22
CCn1cc(-c2ccc(C(=O)N(c3nccc4scc(C)c34)[C@@H]3CCCNC3)c(F)c2)nn1 [Example 704, (R)-4-(1-ethyl-1H-1,2,3-triazol-4-yl)-2-fluoro-N-(3-methylthieno[3,2-c]pyridin-4-yl)-N-(piperidin-3-yl)benzamide] | 7.10
Cc1cc(-c2cn(C)nn2)ccc1C(=O)N(c1nccc2cccc(C)c12)C1CCCNC1 (stereo not shown) [Example 705, 2-methyl-4-(1-methyl-1H-1,2,3-triazol-4-yl)-N-(8-methylisoquinolin-1-yl)-N-(piperidin-3-yl)benzamide] | 6.29
COc1cc(C(=O)N(c2nccc3cc(Cl)cc(C)c23)[C@@H]2CCCNC2)ccc1-c1nnc(C)s1 [Example 706, (R)—N-(6-chloro-8-methylisoquinolin-1-yl)-3-methoxy-4-(5-methyl-1,3,4-thiadiazol-2-yl)-N-(piperidin-3-yl)benzamide] | 6.38
Cc1nnc(-c2ccc(C(=O)N(c3nccc4cc(Cl)cc(C)c34)[C@@H]3CCCNC3)cc2C)s1 [Example 707, (R)—N-(6-chloro-8-methylisoquinolin-1-yl)-3-methyl-4-(5-methyl-1,3,4-thiadiazol-2-yl)-N-(piperidin-3-yl)benzamide] | 6.33
Cc1nnc(-c2ccc(C(=O)N(c3nccc4cc(Cl)cc(C)c34)[C@@H]3CCCNC3)cc2F)s1 [Example 708, (R)—N-(6-chloro-8-methylisoquinolin-1-yl)-3-fluoro-4-(5-methyl-1,3,4-thiadiazol-2-yl)-N-(piperidin-3-yl)benzamide] | 6.80
Cc1nnc(-c2ccc(C(=O)N(c3nccc4cc(Cl)cc(C)c34)[C@@H]3CCCNC3)cn2)s1 [Example 709, (R)—N-(6-chloro-8-methylisoquinolin-1-yl)-6-(5-methyl-1,3,4-thiadiazol-2-yl)-N-(piperidin-3-yl)nicotinamide] | 7.10
COc1nnc(-c2ccc(C(=O)N(c3nccc4cc(F)cc(C)c34)[C@@H]3CCCNC3)c(F)c2)s1 [Example 710, 2-fluoro-N-(6-fluoro-8-methyl-1-isoquinolyl)-4-(5-methoxy-1,3,4-thiadiazol-2-yl)-N-[(3R)-3-piperidyl]benzamide] | 5.64
CCn1cc(-c2ccc(C(=O)N(c3nccc4cc(Cl)cc(C)c34)[C@@H]3CCCNC3)c(F)c2)nn1 [Example 711, N-(6-chloro-8-methyl-1-isoquinolyl)-4-(1-ethyltriazol-4-yl)-2-fluoro-N-[(3R)-3-piperidyl] benzamide] | 7.13
CCn1cc(-c2ccc(C(=O)N(c3nccc4cc(F)cc(C)c34)[C@@H]3CCCNC3)c(F)c2)nn1 [Example 712, 4-(1-ethyltriazol-4-yl)-2-fluoro-N-(6-fluoro-8-methyl-1-isoquinolyl)-N-[(3R)-3-piperidyl]benzamide] | 7.28
CCN1CCN(c2ccnc(Nc3ccc(C(=O)N(c4nccc5cccc(C)c45)[C@@H]4CCCNC4)c(F)c3)n2)CC1 [Example 713, (R)-4-((4-(4-ethylpiperazin-1-yl)pyrimidin-2-yl)amino)-2-fluoro-N-(8-methylisoquinolin-1-yl)-N-(piperidin-3-yl)benzamide] | 7.09
Cc1cccc2ccnc(N(C(=O)c3ccc(Nc4nccc(N5CCC(N(C)C)CC5)n4)cc3F)[C@@H]3CCCNC3)c12 [Example 714, (R)-4-((4-(4-(dimethylamino)piperidin-1-yl)pyrimidin-2-yl)amino)-2-fluoro-N-(8-methylisoquinolin-1-yl)-N-(piperidin-3-yl)benzamide] | 6.64
Cc1cccc2ccnc(N(C(=O)c3ccc(Nc4nccc(N5CCC(N6CCCC6)CC5)n4)cc3F)[C@@H]3CCCNC3)c12 [Example 715, (R)-2-fluoro-N-(8-methylisoquinolin-1-yl)-N-(piperidin-3-yl)-4-((4-(4-(pyrrolidin-1-yl)piperidin-1-yl)pyrimidin-2-yl)amino)benzamide] | 6.64
COC1CCN(c2ccnc(Nc3ccc(C(=O)N(c4nccc5cccc(C)c45)[C@@H]4CCCNC4)c(F)c3)n2)CC1 [Example 716, (R)-2-fluoro-4-((4-(4-methoxypiperidin-1-yl)pyrimidin-2-yl)amino)-N-(8-methylisoquinolin-1-yl)-N-(piperidin-3-yl)benzamide] | 7.47
Cc1cccc2ccnc(N(C(=O)c3ccc(Nc4nccc(N5CCC(O)CC5)n4)cc3F)[C@@H]3CCCNC3)c12 [Example 717, (R)-2-fluoro-4-((4-(4-hydroxypiperidin-1-yl)pyrimidin-2-yl)amino)-N-(8-methylisoquinolin-1-yl)-N-(piperidin-3-yl)benzamide] | 7.52
Cc1cccc2ccnc(N(C(=O)c3ccc(Nc4nccc(N5CCNCC5)n4)cc3F)[C@@H]3CCCNC3)c12 [Example 718, (R)-2-fluoro-N-(8-methylisoquinolin-1-yl)-4-((4-(piperazin-1-yl)pyrimidin-2-yl)amino)-N-(piperidin-3-yl)benzamide] | 6.74

Structure (SMILES) | pIC50
Cc1cccc2ccnc(N(C(=O)c3ccc(Nc4nccc(N5CCC(=O)CC5)n4)cc3F)[C@@H]3CCCNC3)c12 [Example 719, (R)-2-fluoro-N-(8-methylisoquinolin-1-yl)-4-((4-(4-oxopiperidin-1-yl)pyrimidin-2-yl)amino)-N-(piperidin-3-yl)benzamide] | 7.85
Cc1cccc2ccnc(N(C(=O)c3ccc(Nc4nccc(-c5ccc(N)nc5)n4)cc3F)[C@@H]3CCCNC3)c12 [Example 720, (R)-4-((4-(6-aminopyridin-3-yl)pyrimidin-2-yl)amino)-2-fluoro-N-(8-methylisoquinolin-1-yl)-N-(piperidin-3-yl)benzamide] | 7.26
Cc1cccc2ccnc(N(C(=O)c3ccc(Nc4nccc(-c5ccc(O)cc5)n4)cc3F)[C@@H]3CCCNC3)c12 [Example 721, (R)-2-fluoro-4-((4-(4-hydroxyphenyl)pyrimidin-2-yl)amino)-N-(8-methylisoquinolin-1-yl)-N-(piperidin-3-yl)benzamide] | 6.85
Cc1cccc2ccnc(N(C(=O)c3ccc(Nc4nccc(-n5cncn5)n4)cc3F)[C@@H]3CCCNC3)c12 [Example 722, (R)-4-((4-(1H-1,2,4-triazol-1-yl)pyrimidin-2-yl)amino)-2-fluoro-N-(8-methylisoquinolin-1-yl)-N-(piperidin-3-yl)benzamide] | 6.80
Cc1cccc2ccnc(N(C(=O)c3ccc(Nc4nccc(-n5cccn5)n4)cc3F)[C@@H]3CCCNC3)c12 [Example 723, (R)-4-((4-(1H-pyrazol-1-yl)pyrimidin-2-yl)amino)-2-fluoro-N-(8-methylisoquinolin-1-yl)-N-(piperidin-3-yl)benzamide] | 7.09
Cc1cccc2ccnc(N(C(=O)c3ccc(Nc4nccc(-n5ccnc5)n4)cc3F)[C@@H]3CCCNC3)c12 [Example 724, (R)-4-((4-(1H-imidazol-1-yl)pyrimidin-2-yl)amino)-2-fluoro-N-(8-methylisoquinolin-1-yl)-N-(piperidin-3-yl)benzamide] | 7.25
Cc1nnc(-c2ccc(C(=O)N(c3nccc4cc(F)cc(C)c34)C3CCCNC3)cc2)s1 (stereo not shown) [Example 725, N-(6-fluoro-8-methyl-1-isoquinolyl)-4-(5-methyl-1,3,4-thiadiazol-2-yl)-N-(3-piperidyl)benzamide] | 6.68
CNc1cccnc1Nc1ccc(C(=O)N(c2nccc3cccc(C)c23)[C@@H]2CCCNC2)c(F)c1 [Example 726, (R)-2-fluoro-4-((3-(methylamino)pyridin-2-yl)amino)-N-(8-methylisoquinolin-1-yl)-N-(piperidin-3-yl)benzamide] | 5.72
Cc1cccc2ccnc(N(C(=O)c3ccc(Nc4nccc(-c5cccnc5)n4)cc3F)[C@@H]3CCCNC3)c12 [Example 727, (R)-2-fluoro-N-(8-methylisoquinolin-1-yl)-N-(piperidin-3-yl)-4-((4-(pyridin-3-yl)pyrimidin-2-yl)amino)benzamide] | 7.49
Cc1cccc2ccnc(N(C(=O)c3ccc(Nc4nccc(-c5ccccn5)n4)cc3F)[C@@H]3CCCNC3)c12 [Example 728, (R)-2-fluoro-N-(8-methylisoquinolin-1-yl)-N-(piperidin-3-yl)-4-((4-(pyridin-2-yl)pyrimidin-2-yl)amino)benzamide] | 7.07
COCCn1nc(C)cc1-c1ccc(C(=O)N(c2nccc3cc(F)cc(C)c23)[C@@H]2CCCNC2)nc1 [Example 729, (R)—N-(6-fluoro-8-methylisoquinolin-1-yl)-5-(1-(2-methoxyethyl)-3-methyl-1H-pyrazol-5-yl)-N-(piperidin-3-yl)picolinamide] | < 5.19
CCc1nnc(-c2ccc(C(=O)N(c3nccc4cc(Cl)cc(C)c34)[C@@H]3CCCNC3)nc2)s1 [Example 730, (R)—N-(6-chloro-8-methylisoquinolin-1-yl)-5-(5-ethyl-1,3,4-thiadiazol-2-yl)-N-(piperidin-3-yl)picolinamide] | 6.59
COC/C=C(\Cl)c1ccnc(Nc2ccc(C(=O)N(c3nccc4cccc(C)c34)[C@@H]3CCCNC3)c(F)c2)n1 [Example 731, (R)-4-((4-(1-chloro-3-methoxyprop-1-en-1-yl)pyrimidin-2-yl)amino)-2-fluoro-N-(8-methylisoquinolin-1-yl)-N-(piperidin-3-yl)benzamide] | 6.92
Cc1ncc(-c2cc(C)c3c(N(C(=O)c4ccc(-c5nnc(C)s5)cc4F)[C@@H]4CCCNC4)nccc3c2)s1 [Example 732, 2-fluoro-N-[8-methyl-6-(2-methylthiazol-5-yl)-1-isoquinolyl]-4-(5-methyl-1,3,4-thiadiazol-2-yl)-N-[(3R)-3-piperidyl]benzamide] | 7.31
Cc1cccc2ccnc(N(C(=O)c3ccc(Nc4nccc(NCCO)n4)cc3F)[C@@H]3CCCNC3)c12 [Example 734, (R)-2-fluoro-4-((4-((2-hydroxyethyl)amino)pyrimidin-2-yl)amino)-N-(8-methylisoquinolin-1-yl)-N-(piperidin-3-yl)benzamide] | 7.09
